In ChEMBL document CHEMBL3826966, “A chromatography-free isolation of rohitukine from leaves of Dysoxylum binectariferum: Evaluation for in vitro cytotoxicity, Cdk inhibition and physicochemical properties” (Bioorg Med Chem Lett, 2016):

How the values were obtained:
[1] = Partition coefficient, logP of the compound in water/PBS buffer at 25 degC by OECD guidelines based method; type: physicochemical; settings: water/PBS buffer; read-out: logP
[2] = biological target: MAP kinase-activated protein kinase 3 (Homo sapiens) (UniProt Q16644); experiment: Inhibition of human MAPKAPK3 assessed as remaining enzyme activity at 50 uM after 30 mins by 33P-ATP filter-binding assay
[3] = biological target: Aurora kinase A (Homo sapiens) (UniProt O14965); experiment: Inhibition of human Aurora A (2 to 403 residues) assessed as remaining enzyme activity at 50 uM after 30 mins by 33P-ATP filter-binding assay
[4] = biological target: Tyrosine-protein kinase Yes (Homo sapiens) (UniProt P07947); experiment: Inhibition of human YES1 (1 to 543 residues) assessed as remaining enzyme activity at 50 uM after 30 mins by 33P-ATP filter-binding assay
Chain of Tyrosine-protein kinase Yes (Homo sapiens) (P07947 2-543 limits assumed): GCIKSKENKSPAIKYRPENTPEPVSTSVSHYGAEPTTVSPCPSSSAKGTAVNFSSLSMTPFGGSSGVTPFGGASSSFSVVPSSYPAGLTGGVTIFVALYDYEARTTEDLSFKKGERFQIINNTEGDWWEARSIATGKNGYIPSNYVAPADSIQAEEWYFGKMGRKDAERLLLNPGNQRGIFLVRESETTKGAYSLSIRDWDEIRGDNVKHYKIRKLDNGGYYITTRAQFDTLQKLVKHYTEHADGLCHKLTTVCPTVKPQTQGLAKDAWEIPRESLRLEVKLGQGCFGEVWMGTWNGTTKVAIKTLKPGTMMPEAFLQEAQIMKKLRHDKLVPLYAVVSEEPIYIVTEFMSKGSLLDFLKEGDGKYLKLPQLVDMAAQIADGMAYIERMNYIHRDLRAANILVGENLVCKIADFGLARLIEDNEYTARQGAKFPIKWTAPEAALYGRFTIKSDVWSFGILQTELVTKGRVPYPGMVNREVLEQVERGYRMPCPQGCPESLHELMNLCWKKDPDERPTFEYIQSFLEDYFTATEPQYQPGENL

[5] = Cytotoxicity against human Hs578T cells assessed as cell growth inhibition after 48 hrs by MTT assay; type: functional; settings: Hs-578T
[6] = biological target: Ephrin type-A receptor 4 (Homo sapiens) (UniProt P54764); experiment: Inhibition of human EPHA4 (580 to 986 residues) assessed as remaining enzyme activity at 50 uM after 30 mins by 33P-ATP filter-binding assay
Chain of Ephrin type-A receptor 4 (Homo sapiens) (P54764 whole entry, the tested form may be a part): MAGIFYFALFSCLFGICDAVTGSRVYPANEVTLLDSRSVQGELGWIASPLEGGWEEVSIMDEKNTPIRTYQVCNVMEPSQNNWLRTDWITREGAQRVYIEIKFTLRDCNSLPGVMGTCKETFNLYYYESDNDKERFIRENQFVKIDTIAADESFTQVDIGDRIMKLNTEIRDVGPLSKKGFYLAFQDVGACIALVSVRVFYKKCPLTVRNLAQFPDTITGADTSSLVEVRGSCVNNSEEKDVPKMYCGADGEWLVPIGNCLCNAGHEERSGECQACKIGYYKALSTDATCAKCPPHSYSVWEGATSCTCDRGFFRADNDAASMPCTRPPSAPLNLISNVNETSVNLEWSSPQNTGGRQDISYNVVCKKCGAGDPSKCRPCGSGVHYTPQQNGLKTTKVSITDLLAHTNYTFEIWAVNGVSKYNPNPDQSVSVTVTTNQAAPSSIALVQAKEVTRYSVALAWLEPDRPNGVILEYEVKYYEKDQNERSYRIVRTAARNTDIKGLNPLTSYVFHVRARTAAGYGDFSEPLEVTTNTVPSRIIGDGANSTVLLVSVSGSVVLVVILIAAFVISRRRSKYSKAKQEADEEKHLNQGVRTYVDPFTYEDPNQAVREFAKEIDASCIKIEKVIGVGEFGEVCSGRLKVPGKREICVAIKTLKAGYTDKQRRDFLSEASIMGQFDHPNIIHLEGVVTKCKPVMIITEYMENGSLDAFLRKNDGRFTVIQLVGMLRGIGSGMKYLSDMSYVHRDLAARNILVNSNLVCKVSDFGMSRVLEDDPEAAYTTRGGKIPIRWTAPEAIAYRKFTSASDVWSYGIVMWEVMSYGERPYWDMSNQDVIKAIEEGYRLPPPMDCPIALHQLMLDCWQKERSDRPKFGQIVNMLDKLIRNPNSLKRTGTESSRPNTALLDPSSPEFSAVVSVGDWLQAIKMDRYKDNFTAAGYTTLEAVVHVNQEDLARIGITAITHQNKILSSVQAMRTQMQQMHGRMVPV

[7] = Cell cycle arrest in human HL60 cells assessed as accumulation at S phase at 1 uM (reference value: 36 %); type: functional, cell-based; settings: HL-60
[8] = system: K562; experiment: Cytotoxicity against human K562 cells assessed as cell growth inhibition after 48 hrs by MTT assay; type: functional; settings: K562, 48 h
[9] = biological target: Misshapen-like kinase 1 (Homo sapiens) (UniProt Q8N4C8); experiment: Inhibition of human MINK1 (1 to 320 residues) assessed as remaining enzyme activity at 50 uM after 30 mins by 33P-ATP filter-binding assay
[10] = biological target: Serine/threonine-protein kinase tousled-like 1 (Homo sapiens) (UniProt Q9UKI8); experiment: Inhibition of human TLK1 (1 to 766 residues) assessed as remaining enzyme activity at 50 uM after 30 mins by 33P-ATP filter-binding assay
[11] = biological target: Inhibitor of nuclear factor kappa-B kinase subunit beta (Homo sapiens) (UniProt O14920); experiment: Inhibition of human IKKb (1 to 736 residues) assessed as remaining enzyme activity at 50 uM after 30 mins by 33P-ATP filter-binding assay
Chain of Inhibitor of nuclear factor kappa-B kinase subunit beta (Homo sapiens) (O14920 whole entry, the tested form may be a part): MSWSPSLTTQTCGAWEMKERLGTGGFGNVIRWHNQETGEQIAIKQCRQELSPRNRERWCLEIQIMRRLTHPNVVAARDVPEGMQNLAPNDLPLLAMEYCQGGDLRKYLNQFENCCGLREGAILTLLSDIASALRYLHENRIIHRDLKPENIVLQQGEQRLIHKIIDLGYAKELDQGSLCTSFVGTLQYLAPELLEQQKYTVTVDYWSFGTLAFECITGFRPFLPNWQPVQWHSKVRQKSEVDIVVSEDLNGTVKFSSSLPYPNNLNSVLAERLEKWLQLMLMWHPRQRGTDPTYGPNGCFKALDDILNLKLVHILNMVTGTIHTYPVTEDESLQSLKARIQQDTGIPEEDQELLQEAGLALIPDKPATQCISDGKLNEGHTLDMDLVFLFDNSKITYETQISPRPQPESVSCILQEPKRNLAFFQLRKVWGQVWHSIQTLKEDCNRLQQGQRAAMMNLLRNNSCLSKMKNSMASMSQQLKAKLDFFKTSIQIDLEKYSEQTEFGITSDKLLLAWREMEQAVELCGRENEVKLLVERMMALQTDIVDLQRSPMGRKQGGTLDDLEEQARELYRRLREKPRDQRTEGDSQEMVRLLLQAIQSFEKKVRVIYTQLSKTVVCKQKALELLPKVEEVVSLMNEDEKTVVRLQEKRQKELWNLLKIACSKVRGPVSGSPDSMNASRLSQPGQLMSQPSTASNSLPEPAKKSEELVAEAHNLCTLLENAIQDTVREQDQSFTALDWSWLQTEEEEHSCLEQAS

[12] = biological target: Serine/threonine-protein kinase MARK1 (Homo sapiens) (UniProt Q9P0L2); experiment: Inhibition of human MARK1 (2 to 795 residues) assessed as remaining enzyme activity at 50 uM after 30 mins by 33P-ATP filter-binding assay
[13] = biological target: Protein kinase C gamma type (Homo sapiens) (UniProt P05129); experiment: Inhibition of human PKCgamma (1 to 697 residues) assessed as remaining enzyme activity at 50 uM after 30 mins by 33P-ATP filter-binding assay
[14] = biological target: SRSF protein kinase 1 (Homo sapiens) (UniProt Q96SB4); experiment: Inhibition of human SRPK1 (2 to 654 residues) assessed as remaining enzyme activity at 50 uM after 30 mins by 33P-ATP filter-binding assay
[15] = biological target: Homeodomain-interacting protein kinase 1 (Homo sapiens) (UniProt Q86Z02); experiment: Inhibition of human HIPK1 (158 to 555 residues) assessed as remaining enzyme activity at 50 uM after 30 mins by 33P-ATP filter-binding assay
[16] = biological target: Fibroblast growth factor receptor 1 (Homo sapiens) (UniProt P11362); experiment: Inhibition of human FGFR1 (400 to 820 residues) assessed as remaining enzyme activity at 50 uM after 30 mins by 33P-ATP filter-binding assay
[17] = biological target: Inhibitor of nuclear factor kappa-B kinase subunit epsilon (Homo sapiens) (UniProt Q14164); experiment: Inhibition of human IKKe (1 to 716 residues) assessed as remaining enzyme activity at 50 uM after 30 mins by 33P-ATP filter-binding assay
[18] = Stability in pH 1.2 buffer at 120 ug/ml after 8 hrs by RP-HPLC analysis; type: physicochemical; settings: pH 1.2, 8 h
[19] = biological target: Tau-tubulin kinase 1 (Homo sapiens) (UniProt Q5TCY1); experiment: Inhibition of human TTBK1 (1 to 1321 residues) assessed as remaining enzyme activity at 50 uM after 30 mins by 33P-ATP filter-binding assay
[20] = biological target: Maternal embryonic leucine zipper kinase (Homo sapiens) (UniProt Q14680); experiment: Inhibition of human MELK (2 to 651 residues) assessed as remaining enzyme activity at 50 uM after 30 mins by 33P-ATP filter-binding assay
[21] = biological target: Serine/threonine-protein kinase TAO1 (Homo sapiens) (UniProt Q7L7X3); experiment: Inhibition of human TAO1 (1 to 356 residues) assessed as remaining enzyme activity at 50 uM after 30 mins by 33P-ATP filter-binding assay
Chain of Serine/threonine-protein kinase TAO1 (Homo sapiens) (Q7L7X3 whole entry, the tested form may be a part): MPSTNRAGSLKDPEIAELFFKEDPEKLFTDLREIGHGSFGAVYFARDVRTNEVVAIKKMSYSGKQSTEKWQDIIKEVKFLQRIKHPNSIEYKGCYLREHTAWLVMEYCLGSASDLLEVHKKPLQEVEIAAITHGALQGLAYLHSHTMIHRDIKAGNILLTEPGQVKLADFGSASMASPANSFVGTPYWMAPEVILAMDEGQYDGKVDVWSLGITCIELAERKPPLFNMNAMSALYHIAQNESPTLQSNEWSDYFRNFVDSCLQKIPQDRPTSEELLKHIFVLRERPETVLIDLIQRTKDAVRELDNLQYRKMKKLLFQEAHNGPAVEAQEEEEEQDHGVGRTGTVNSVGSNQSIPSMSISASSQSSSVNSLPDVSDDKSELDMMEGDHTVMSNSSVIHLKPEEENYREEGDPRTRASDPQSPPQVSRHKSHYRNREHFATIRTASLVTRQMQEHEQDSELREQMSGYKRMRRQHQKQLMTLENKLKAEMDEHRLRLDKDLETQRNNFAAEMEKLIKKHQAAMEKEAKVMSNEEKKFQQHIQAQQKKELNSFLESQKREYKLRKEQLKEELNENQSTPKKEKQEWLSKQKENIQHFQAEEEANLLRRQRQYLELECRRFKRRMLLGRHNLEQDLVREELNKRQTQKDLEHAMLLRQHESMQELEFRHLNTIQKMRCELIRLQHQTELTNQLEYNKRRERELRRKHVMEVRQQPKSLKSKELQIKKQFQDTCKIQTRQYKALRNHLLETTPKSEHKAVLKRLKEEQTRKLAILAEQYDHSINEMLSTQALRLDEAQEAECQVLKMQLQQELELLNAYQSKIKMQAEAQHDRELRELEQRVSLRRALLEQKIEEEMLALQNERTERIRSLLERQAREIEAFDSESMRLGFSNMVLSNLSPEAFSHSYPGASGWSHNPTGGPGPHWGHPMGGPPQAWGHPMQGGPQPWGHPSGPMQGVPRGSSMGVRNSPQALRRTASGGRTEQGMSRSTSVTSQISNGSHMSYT

[22] = biological target: Serine/threonine-protein kinase TBK1 (Homo sapiens) (UniProt Q9UHD2); experiment: Inhibition of human TBK1 (1 to 729 residues) assessed as remaining enzyme activity at 50 uM after 30 mins by 33P-ATP filter-binding assay
Chain of Serine/threonine-protein kinase TBK1 (Homo sapiens) (Q9UHD2 whole entry, the tested form may be a part): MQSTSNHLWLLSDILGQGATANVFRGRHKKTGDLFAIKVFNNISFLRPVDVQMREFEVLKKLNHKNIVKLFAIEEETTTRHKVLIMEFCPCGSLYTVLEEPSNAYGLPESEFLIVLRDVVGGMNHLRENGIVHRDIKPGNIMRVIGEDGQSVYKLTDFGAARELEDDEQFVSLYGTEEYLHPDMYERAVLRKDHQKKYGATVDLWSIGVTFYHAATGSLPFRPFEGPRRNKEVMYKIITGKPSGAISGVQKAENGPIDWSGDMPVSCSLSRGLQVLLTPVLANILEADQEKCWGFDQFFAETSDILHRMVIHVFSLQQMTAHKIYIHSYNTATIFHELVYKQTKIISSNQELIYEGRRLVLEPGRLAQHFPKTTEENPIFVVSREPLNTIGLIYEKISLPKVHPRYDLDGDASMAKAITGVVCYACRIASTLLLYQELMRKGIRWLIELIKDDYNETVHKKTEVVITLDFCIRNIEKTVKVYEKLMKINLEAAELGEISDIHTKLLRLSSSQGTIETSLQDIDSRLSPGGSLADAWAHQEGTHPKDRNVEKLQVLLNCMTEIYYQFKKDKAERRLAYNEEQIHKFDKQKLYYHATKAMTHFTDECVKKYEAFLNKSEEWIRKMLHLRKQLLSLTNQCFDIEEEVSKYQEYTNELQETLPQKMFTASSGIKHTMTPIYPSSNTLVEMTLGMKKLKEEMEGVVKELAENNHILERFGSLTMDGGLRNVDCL

[23] = biological target: Aurora kinase B (Homo sapiens) (UniProt Q96GD4); experiment: Inhibition of human Aurora B (1 to 344 residues) assessed as remaining enzyme activity at 50 uM after 30 mins by 33P-ATP filter-binding assay
[24] = Stability in pH 7.4 buffer at 120 ug/ml after 8 hrs by RP-HPLC analysis; type: physicochemical; settings: pH 7.4, 8 h
[25] = biological target: Serine/threonine-protein kinase PLK1 (Homo sapiens) (UniProt P53350); experiment: Inhibition of human PLK1 (1 to 603 residues) assessed as remaining enzyme activity at 50 uM after 30 mins by 33P-ATP filter-binding assay
[26] = Stability in SGF solution at 120 ug/ml after 8 hrs by RP-HPLC analysis; type: physicochemical; settings: simulated gi fluid
[27] = biological target: Insulin receptor (Homo sapiens) (UniProt P06213); experiment: Inhibition of human IR (1001 to 1382 residues) assessed as remaining enzyme activity at 50 uM after 30 mins by 33P-ATP filter-binding assay
[28] = biological target: Serine/threonine-protein kinase SIK2 (Homo sapiens) (UniProt Q9H0K1); experiment: Inhibition of human SIK2 (2 to 962 residues) assessed as remaining enzyme activity at 50 uM after 30 mins by 33P-ATP filter-binding assay
Chain of Serine/threonine-protein kinase SIK2 (Homo sapiens) (Q9H0K1 whole entry, looked up, the tested form may be a part): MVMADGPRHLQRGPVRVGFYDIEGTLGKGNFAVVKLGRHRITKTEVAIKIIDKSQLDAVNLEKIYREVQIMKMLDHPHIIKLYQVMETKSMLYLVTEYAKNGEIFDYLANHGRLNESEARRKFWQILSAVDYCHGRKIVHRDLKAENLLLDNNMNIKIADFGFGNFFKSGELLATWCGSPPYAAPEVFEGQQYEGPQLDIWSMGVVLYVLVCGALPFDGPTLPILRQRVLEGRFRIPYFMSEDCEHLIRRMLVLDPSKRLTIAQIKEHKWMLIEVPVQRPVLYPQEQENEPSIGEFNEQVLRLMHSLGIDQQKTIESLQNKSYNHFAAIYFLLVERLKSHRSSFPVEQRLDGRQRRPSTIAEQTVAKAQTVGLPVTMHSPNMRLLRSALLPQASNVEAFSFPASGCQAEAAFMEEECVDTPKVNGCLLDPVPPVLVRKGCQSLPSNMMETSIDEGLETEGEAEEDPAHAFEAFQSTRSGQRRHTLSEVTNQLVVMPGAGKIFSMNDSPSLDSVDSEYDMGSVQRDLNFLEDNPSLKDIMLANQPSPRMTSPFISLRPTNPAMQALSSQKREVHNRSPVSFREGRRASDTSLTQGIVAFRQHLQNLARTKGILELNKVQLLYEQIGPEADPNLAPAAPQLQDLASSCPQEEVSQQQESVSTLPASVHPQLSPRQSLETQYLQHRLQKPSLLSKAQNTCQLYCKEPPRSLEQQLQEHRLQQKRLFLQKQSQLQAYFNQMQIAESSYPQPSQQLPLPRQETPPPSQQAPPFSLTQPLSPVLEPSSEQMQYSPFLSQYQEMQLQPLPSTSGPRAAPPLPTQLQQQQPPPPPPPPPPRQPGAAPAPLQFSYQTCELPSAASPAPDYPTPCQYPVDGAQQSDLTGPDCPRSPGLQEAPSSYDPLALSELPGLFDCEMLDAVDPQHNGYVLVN

[29] = biological target: High affinity nerve growth factor receptor (Homo sapiens) (UniProt P04629); experiment: Inhibition of human TRKA (441 to 760 residues) assessed as remaining enzyme activity at 50 uM after 30 mins by 33P-ATP filter-binding assay
[30] = biological target: Casein kinase I isoform gamma-2 (Homo sapiens) (UniProt P78368); experiment: Inhibition of human CK1gamma2 (1 to 415 residues) assessed as remaining enzyme activity at 50 uM after 30 mins by 33P-ATP filter-binding assay
[31] = biological target: Tyrosine-protein kinase SYK (Homo sapiens) (UniProt P43405); experiment: Inhibition of human SYK (1 to 635 residues) assessed as remaining enzyme activity at 50 uM after 30 mins by 33P-ATP filter-binding assay

logP [1]: 0.73 | Activity [2]: 83% | Activity [3]: 91% | Activity [4]: 57% | Activity [6]: 53% | Activity [9]: 73% | Activity [10]: 109% | Activity [11]: 83% | Activity [12]: 67% | Activity [13]: 89% | Activity [14]: 40% | Activity [15]: 96% | Activity [16]: 66% | Activity [17]: 69% | Stability [18]: Stable | Activity [19]: 82% | Activity [20]: 80% | Activity [21]: 39% | Activity [22]: 55% | Activity [23]: 58% | Stability [24]: Stable | Activity [25]: 96% | Stability [26]: Stable | Activity [27]: 91% | Activity [28]: 19% | Activity [29]: 89% | Activity [30]: 92% | Activity [31]: 109%
SMILES: Cc1cc(=O)c2c(O)cc(O)c([C@H]3CCN(C)C[C@H]3O)c2o1 [ROHITUKINE]
GI50 [5]: 20 µM | Activity [7]: 50% | GI50 [8]: 24 µM
